Source: patent US12410141B2, “Anti-cancer spirocyclic-guanidine compounds and uses thereof” (The Johns Hopkins University, priority 2020, dated 2025)

How the values were obtained:
U251MG = assay: MTT cytotoxicity assay, U251MG; format: cell-based; details: glioblastoma multiforme, 72 hr, read-out: IC50, cell killing
Method: (§1) All cell lines were obtained from the American Type Culture Collection (ATCC) and cultured in the specified medium supplemented with 10% fetal bovine serum, 100 IU/mL penicillin, and 100 μg/mL streptomycin at 37° C. in a humidified 5% CO2/95% air incubator. To assess drug cytotoxicity cells were seeded at 2,500 cells/well (10,000 cells/well for MM lines and primary cells) in 100 μL medium in 96-well plate. […]
(§2) It was examined whether the RPN13 inhibitor, RA475, was cytotoxic for cancer cell lines using the MTT assay.

cancer cells = assay: MTT cytotoxicity assay, cancer cell lines overall; format: cell-based; details: all solid cancer-derived cell lines tested (Table 1)
Method: All cell lines were obtained from the American Type Culture Collection (ATCC) and cultured in the specified medium supplemented with 10% fetal bovine serum, 100 IU/mL penicillin, and 100 μg/mL streptomycin at 37° C. in a humidified 5% CO2/95% air incubator. To assess drug cytotoxicity cells were seeded at 2,500 cells/well (10,000 cells/well for MM lines and primary cells) in 100 μL medium in 96-well plate. The cells were treated with compounds for 48 h, and cells were incubated according to the manufacturer's protocol with the Thiazolyl Blue Tetrazolium Bromide (Sigma, M2128) and A570 measured using a Benchmark Plus microplate spectrophotometer (BIO-RAD).
as §2

HeLa = assay: MTT cytotoxicity assay, HeLa; format: cell-based; details: cervical, 72 hr, read-out: IC50, cell killing
Method: as §1, §2

[1] = Microsomal stability, human liver microsomes; format: in vitro ADME; details: for % Drug Remaining: Human Liver Microsomes
Method: (§3) Human and mouse liver microsomes and NADPH regenerating system solutions were purchased from Corning Life Sciences (Tewsbury, MA). Human and mouse K2EDTA was purchased from BioIVT (Westbury, NY). Metabolic studies in liver microsomes (0.125 mg/mL) were conducted in 1× phosphate buffered saline (pH 7.4), NADPH-generating system, and 10 μM of RA475 in a final volume of 250 μl. An incubation mixture with and without NADPH-generating system as well as a neat solution without microsomes and NADPH-generating system were prepared. RA475 was added at the same concentration level into human and mouse EDTA plasma. All reactions were initiated with the addition of RA475. Incubations were performed in glass tubes maintained at 37° C. in a shaker bath. At 0, 30, and 60 minutes, 10 μL aliquots were sampled from the reaction mixture and 0.5 mL of acetonitrile containing internal standard (Up284) was added to each samples. Samples were vortex-mixed and underwent centrifugation for 5 min at 1430×g. A 10 μL aliquot of the supernatant was injected onto the LC-MS instrument for qualitative analysis using a temperature-controlled autosampling device operating at 5° C. Chromatographic analysis was performed using a Waters Acquity™ Ultra Performance LC. […] The mobile phase used for the chromatographic separation was composed of water (mobile phase A) and acetonitrile (mobile phase B) containing 0.1% (v/v) formic acid with a flow rate of 0.3 mL/min. The initial mobile phase composition was 80% mobile phase A and 20% mobile phase B. From 0.5 to 1 min, mobile phase B was increased linearly from 20% to 100%. From 1 to 3 min, mobile phase B was maintained at 100%. From 3.0 to 3.1 min, the gradient decreased to 20% mobile phase B and the conditions were maintained until 4.1 min to re-equilibrate the column for the next injection. The column effluent was monitored using an AB Sciex 5500 triple quadrupole mass spectrometer. The instrument was equipped with an electrospray interface, operated in a positive mode and controlled by the Analyst v1.6 software. For the stability study, the mass spectrometer was programmed to monitor the following MRM transition 408.2→366.1 for RA475 and 366.2→155.8 for UP284 (internal standard). Results were assessed qualitatively comparing the average area ratio of RA475 at 0 hr to area ratio at 30 and 60 minutes for both mouse and human liver microsomes. RA475 was not analyzed for metabolites due to the concentration of RA475 not decreasing.

[2] = system: human foreskin fibroblasts (HFF); assay: MTT cytotoxicity assay, human foreskin fibroblasts; format: cell-based; details: non-transformed human foreskin fibroblasts, 72 hr, highest concentration tested 2.5 μM, read-out: IC50, cell killing
Method: as §1, §2

[3] = Plasma stability, human EDTA plasma; format: in vitro ADME; details: 37° C.
Method: as §3

[4] = system: high molecular weight polyubiquitinated proteins in SKOV3 cells; assay: Western blot for polyubiquitinated proteins, SKOV3 cells; format: cell-based; details: 12 hr, Up284 and RA475 0.5 and 1 μM, RA190 1 μM
Method: Cell lysate (10-20 μg total protein) prepared in MPER (Pierce) from each sample was subjected to SDS-PAGE, transferred to PVDF membranes and analyzed by Western blot using antibodies specific for ubiquitin (P4D1, sc-8017, Santa Cruz), or after stripping antibody for actin (#66009, Protein Tech Group), at the dilutions recommended by the manufacturers, and for secondary antibodies either peroxidase-linked anti-mouse IgG or anti-rabbit IgG (GE Healthcare UK Ltd) were utilized at the recommended dilution. The blots were developed using HyGLO chemiluminescent detection reagent (Denville).
Like RA190, RA475 was designed to be an inhibitor of upstream 19S RP proteasome function. […] Treatment with the same doses of Up284 (0.5 and 1 μM) or 1 μM RA190 provided positive controls, and vehicle alone (DMSO) was used as the negative control. At the end of the incubation, attached cells were lysed using MPER buffer according to the manufacturer's protocol. The lysates were subjected to Western blot analysis using antibody to ubiquitin, and then stripped and re-probed with actin antibody to provide a loading control (FIG. 5).
Proteasome inhibitors cause a rapid accumulation of polyUb proteins that is associated with unresolved UPR stress and the induction of apoptosis. Since RA475 is cytotoxic to ovarian cancer cells (Table 1), and induces such a rapid accumulation of polyUb proteins (FIG. 5), it was examined whether RA475 also triggered apoptosis. SKOV3 cells (FIG. 5A) were treated with Up284 (0.5 μM and 1 μM), 1 μM RA190, RA475 (0.5 μM and 1 μM) or vehicle alone (DMSO) and then cultured for 12 hr. OVCAR3 cells (FIG. 5B) were treated with Up284 (0.5 μM), Bortezomib (Bz, 0.25 μM), Ixazomib (Iz, 0.25 μM), RA475 (0.5 μM and 1 μM) or vehicle alone (DMSO). The attached cells were harvested and their lysates were subjected to Western blot analysis, first probed with antibody to ubiquitin and then to actin.

PEA2 = assay: MTT cytotoxicity assay, PEA2; format: cell-based; details: PEA2, ovarian, 72 hr, read-out: IC50, cell killing
Method: as §1, §2

[5] = Plasma stability, mouse EDTA plasma; format: in vitro ADME; details: 37° C.
Method: as §3

| SMILES | IC50 (U251MG) [µM] | IC50 across cancer cell lines (cancer cells) | IC50 (HeLa) [µM] | % Drug Remaining ([1]; NADPH Neg, 0 minutes) [%] | % Drug Remaining ([1]; NADPH Neg, 30 minutes) [%] | % Drug Remaining ([1]; NADPH Neg, 60 minutes) [%] | % Drug Remaining ([1]; NADPH Pos, 0 minutes) [%] | % Drug Remaining ([1]; NADPH Pos, 30 minutes) [%] | % Drug Remaining ([1]; NADPH Pos, 60 minutes) [%] | maximal decrease of area ratio ([1]; human liver microsomes lacking NADPH regeneration solution) [%] | IC50 [2] [µM] | % Drug Remaining ([3]; 0 minutes) [%] | % Drug Remaining ([3]; 30 minutes) [%] | % Drug Remaining ([3]; 60 minutes) [%] | accumulation of polyUb proteins [4] | IC50 (PEA2) [µM] | % Drug Remaining ([5]; 0 minutes) [%] | % Drug Remaining ([5]; 30 minutes) [%] | % Drug Remaining ([5]; 60 minutes) [%] |
| --- | --- | --- | --- | --- | --- | --- | --- | --- | --- | --- | --- | --- | --- | --- | --- | --- | --- | --- | --- |
| Cl.Cl.N#Cc1ccc(/C=C2/C(=O)/C(=C/c3ccc(C#N)cc3)C23CCN(C(=N)N)CC3)cc1 [RA475] | 0.6 | Sub micromolar | 0.213 | 100 | 99 | 93 | 100 | 112 | 102 | 7 | > 2.5 | 100 | 108 | 107 | very significant increase in a dose-dependent manner | 0.356 | 100 | 109 | 109 |
| N#Cc1ccc(/C=C2/C(=O)/C(=C/c3ccc(C#N)cc3)C23CCNCC3)cc1 [Up284, reference compound] | – | – | – | 100 | 57 | 52 | 100 | 43 | 43 | – | – | 100 | 100 | 90 | profound accumulation | – | 100 | 84 | 94 |
